Experimental data reported in patent publication US20120282245A1, “BIOMARKERS AND ASSAYS FOR THE TREATMENT OF CANCER” (BIOGEN IDEC MA INC., priority 2006, published 2012).

Columns and labels:
TRAF3 = assay: Western blot for TRAF3 protein level; format: cell-based; settings: DLD-1 cells; BS-1 100 ng/ml or TNFα 20 ng/ml
Method: (§1) DLD-1 and WiDr adenocarcinoma cell lines were obtained from ATCC (Manassas, Va.), and cultured in MEM Earle's medium supplemented with 10% FBS. Antibodies against LTβR (N-15), TRAF3 (H-20 and H-122), TRAF2 (H-249), and NFκB2 (C-5) were obtained from Santa Cruz Biotechnology (Santa Cruz, Calif.). Antibodies against phosphorylated IκBα (5A5), phosphorylated RelA, and NIK were purchased from Cell Signaling Technologies (Beverly, Mass.).
Cells were treated for 10 minutes at 37° C. with media or activating antibody (BS-1) and washed twice in ice-cold PBS with protease and phosphatase inhibitors, followed by lysis by scraping in ice-cold lysis buffer [50 mM PIPES pH 6.8, 100 mM KCl, 2 mM MgCl2, 1 mM EGTA, 0.2% NP-40, and 10% Glycerol, supplemented with Complete EDTA-free protease inhibitor cocktail (Roche, Indianapolis, Ind.), 10 mM Sodium Fluoride, and 100 μM Sodium Orthovanadate]. Lysates were centrifuged at 14000 RPM for 30 minutes at 4° C., and supernatants were pre-cleared with normal goat IgG-agarose beads (Sigma, St. Louis, Mo.) by incubating on a rotator at 4° C. […] Blots were developed using SuperSignal chemiluminescent detection substrates (Pierce), and detected on Biomax X-ray films (Kodak, Rochester, N.Y.) and/or directly on a Kodak ImageStation 2000R luminescence detector. […]

canonical NFκB1 pathway = assay: Western blot for phosphorylated IκBα and RelA (canonical NFκB1 activation); format: cell-based; settings: DLD-1 and WiDr cells, TNFα 20 ng/ml
Method: as §1
LTβR was activated using 100 ng/ml of a humanized bi-specific, activating antibody (BS-1) developed at Biogen Idec, Inc. TNFα was used at a concentration of 20 ng/ml. During stimulation, cells were kept in a 37° C. incubator for indicated times.
Cells were treated for 10 minutes at 37° C. with media or activating antibody (BS-1) and washed twice in ice-cold PBS with protease and phosphatase inhibitors, followed by lysis by scraping in ice-cold lysis buffer [50 mM PIPES pH 6.8, 100 mM KCl, 2 mM MgCl2, 1 mM EGTA, 0.2% NP-40, and 10% Glycerol, supplemented with Complete EDTA-free protease inhibitor cocktail (Roche, Indianapolis, Ind.), 10 mM Sodium Fluoride, and 100 μM Sodium Orthovanadate]. […] Blots were developed using SuperSignal chemiluminescent detection substrates (Pierce), and detected on Biomax X-ray films (Kodak, Rochester, N.Y.) and/or directly on a Kodak ImageStation 2000R luminescence detector.

Which “TRAF3 level after stimulation” value (TRAF3) does the source give for TNFα here?
Its value is “increases the levels of TRAF3”.

What about the “activation of NFκB1” value (canonical NFκB1 pathway) of the same substance?
Its value is “identical in both cell-lines”.
